# Data reported in article PMC6858373 (Scientific Reports, 2019).
# Where two headings read alike, the source gives them in different places.
# Tests used:
# [1] = biological target: T1, FGF14:Nav1.6 C-tail complex (Homo sapiens, UniProt Q92915+Q9UQD0); test: Split-luciferase complementation assay (LCA) in Clone V double stable HEK293 cells; assay type: cell-based; details: for Z-score (LCA primary screening): 30 µM, average of primary screening (n = 2), vs on-plate 0.3% DMSO; for EMax (% Luminescence): agonists; for EC50: read-out: EC50
# T1 construct: polymerase chain reaction (PCR) amplification of the FGF14 open reading frame (nt 1–855); C-terminal fragment of Nav1.6 (amino acids 1763–1976) fused with CD4ΔC-tail (amino acids 1–395); expressed in transfected cells
# T1 sequence (Q92915 1-252 isoform Q92915-2): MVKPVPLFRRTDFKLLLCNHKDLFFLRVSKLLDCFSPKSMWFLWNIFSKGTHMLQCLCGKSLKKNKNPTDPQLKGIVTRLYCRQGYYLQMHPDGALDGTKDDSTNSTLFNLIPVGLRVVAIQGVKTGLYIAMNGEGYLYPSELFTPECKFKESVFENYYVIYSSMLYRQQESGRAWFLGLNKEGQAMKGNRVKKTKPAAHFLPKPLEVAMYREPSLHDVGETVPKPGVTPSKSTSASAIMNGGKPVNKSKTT
# T1 sequence (Q9UQD0 1763-1976 limits assumed): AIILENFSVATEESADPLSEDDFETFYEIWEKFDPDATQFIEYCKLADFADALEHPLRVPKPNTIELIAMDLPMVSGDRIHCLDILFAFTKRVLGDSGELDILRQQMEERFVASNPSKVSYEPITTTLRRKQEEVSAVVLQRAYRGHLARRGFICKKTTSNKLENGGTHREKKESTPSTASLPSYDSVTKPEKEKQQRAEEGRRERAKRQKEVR
# [2] = biological target: full-length P. pyralis luciferase (Photinus pyralis, UniProt P08659, K549A/L550V/N119G/N50D/S548I); assay type: cell-based
# full-length P. pyralis luciferase, sequence (P08659 whole entry N50D/N119G/S548I/K549A/L550V, looked up): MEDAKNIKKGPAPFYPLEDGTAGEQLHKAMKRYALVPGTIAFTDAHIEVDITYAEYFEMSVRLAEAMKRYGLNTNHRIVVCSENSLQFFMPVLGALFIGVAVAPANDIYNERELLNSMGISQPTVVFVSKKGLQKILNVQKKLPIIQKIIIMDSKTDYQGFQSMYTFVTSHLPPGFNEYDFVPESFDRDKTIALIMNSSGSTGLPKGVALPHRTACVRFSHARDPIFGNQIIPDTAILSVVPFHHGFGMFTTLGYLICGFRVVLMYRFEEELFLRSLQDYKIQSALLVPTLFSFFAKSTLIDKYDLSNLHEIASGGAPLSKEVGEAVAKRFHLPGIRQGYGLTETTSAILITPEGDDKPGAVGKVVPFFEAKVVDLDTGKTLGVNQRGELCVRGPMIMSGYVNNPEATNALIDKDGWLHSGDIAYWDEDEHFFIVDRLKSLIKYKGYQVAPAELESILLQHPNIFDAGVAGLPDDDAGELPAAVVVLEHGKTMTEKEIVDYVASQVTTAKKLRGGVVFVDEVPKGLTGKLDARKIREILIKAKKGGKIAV
# [3] = CC_NCI screening, normalized to on-plate 0.3% DMSO controls
# [4] = CC_NCI screening, biological replicate Set 1, normalized to on-plate 0.3% DMSO controls
# [5] = CC_NCI screening, biological replicate Set 1, normalized to on-plate 0.3% DMSO controls (n=16 per plate)
# [6] = CC_NCI screening, biological replicate Set 2, normalized to on-plate 0.3% DMSO controls
# [7] = CC_NCI screening, biological replicate Set 2, normalized to on-plate 0.3% DMSO controls (n=16 per plate)
# [8] = average of Set 1 and Set 2, normalized to 0.3% DMSO controls
# [9] = Clone V cells, 384-well, normalized to DMSO
# [10] = estimated, 8-point dose response 0.25-30 µM, n = 4 per concentration, library compounds
compound,measurement,setting,value
"CCn1c(-c2nonc2N)nc2cnc(Oc3cccc(NC(=O)c4ccc(OCCN5CCOCC5)cc4)c3)cc21 [GSK 269962 A, reference compound]",Z-score (LCA primary screening),[1]; 384-well,−5.77
same,IMin (% Luminescence),"[1]; antagonists, Clone V cells, 384-well, normalized to DMSO",28.81 % Luminescence
same,IC50,"[1]; estimated, 8-point dose response 0.25-30 µM, n = 4 per concentration, library compounds, read-out: IC50",24.7 µM
CS(=O)(=O)N1CCN(Cc2cc3nc(-c4cccc5[nH]ncc45)nc(N4CCOCC4)c3s2)CC1 [GDC 0941],Luciferase Assay % Lum (full-length luciferase counter-screen),[2]; [3],84.36%
same,Luciferase Assay Z-score (full-length luciferase counter-screen),[2]; [3],-2.00
O=c1cc(N2CCOCC2)nc2c3ccccc3ccn12 [COMPOUND 401],Split Luciferase Assay Z-score Set 1,[1]; [4],-0.15
same,Split Luciferase Assay % Lum Set 1,[1]; [5],98.17%
same,Split Luciferase Assay Z-score Set 2,[1]; [6],-0.43
same,Split Luciferase Assay %Lum Set 2,[1]; [7],94.67%
same,Split Luciferase Assay %Lum Avg,[1]; [8],96.42%
same,Luciferase Assay % Lum (full-length luciferase counter-screen),[2]; [3],93.50%
same,Luciferase Assay Z-score (full-length luciferase counter-screen),[2]; [3],-0.83
"O=[N+]([O-])/C=C/c1ccc2c(c1)OCO2 [MNS, reference compound]",IC50,"[1]; 384-well plates, range 0.625 - 25 μM, n=16 per concentration (Supplementary Fig. S1A), read-out: Estimated IC50",13.3 µM
same,% luminescence (normalized mean and SD),"[1]; MNS 30 µM, Clone V cells, 96-well plates",10.8% ± 3.1%
same,IC50,"[1]; cell density 1 × 10^4 cells per 384-well, 8 concentrations 0.625-30 µM, read-out: IC50",3.96 µM
same,IC50,"[1]; cell density 2 × 10^4 cells per 384-well, 8 concentrations 0.625-30 µM, read-out: IC50",7.49 µM
same,IC50,"[1]; cell density 3 × 10^4 cells per 384-well, 8 concentrations 0.625-30 µM, read-out: IC50",9.82 µM
same,IC50,"[1]; cell density 4 × 10^4 cells per 384-well, 8 concentrations 0.625-30 µM, read-out: IC50",13.3 µM
same,"% maximal luminescence, full-length luciferase (normalized mean and SD)","[2]; MNS 30 µM, 96-well plates",96.8% ± 2.8%
Oc1ncc(N(CCCl)CCCl)c(O)n1 [Uracil mustard],Split Luciferase Assay % Lum Set 1,[1],76.42%
same,Split Luciferase Assay %Lum Avg,[1],74.62%
same,Split Luciferase Assay %Lum Set 2,[1],72.82%
same,Split Luciferase Assay Z-score Set 1,[1],-1.91
same,Split Luciferase Assay Z-score Set 2,[1],-2.21
same,Luciferase Assay % Lum,[2],97.98%
same,Luciferase Assay Z-score,[2],-0.26
Cc1ccc(NC(=O)c2ccc(CN3CCN(C)CC3)cc2)cc1Nc1nccc(-c2cccnc2)n1 [Imatinib],Luciferase Assay % Lum,[2],90.17%
same,Luciferase Assay Z-score,[2],-1.26
CCc1c2c(nc3ccc(OC(=O)N4CCC(N5CCCCC5)CC4)cc13)-c1cc3c(c(=O)n1C2)COC(=O)[C@]3(O)CC.Cl [Irinotecan hydrochloride],Luciferase Assay % Lum,"[2]; CC_NCI screening, full-length luciferase counter-screen luminescence, normalized to on-plate 0.3% DMSO controls",96.04%
same,Luciferase Assay Z-score,"[2]; CC_NCI screening, full-length luciferase counter-screen, normalized to on-plate 0.3% DMSO controls",-0.51
Plicamycin,Split Luciferase Assay Z-score Set 1,[1]; [4],-1.20
same,Split Luciferase Assay % Lum Set 1,[1]; [5],85.12%
same,Split Luciferase Assay Z-score Set 2,[1]; [6],-1.11
same,Split Luciferase Assay %Lum Set 2,[1]; [7],86.35%
same,Split Luciferase Assay %Lum Avg,[1]; [8],85.73%
same,Luciferase Assay % Lum (full-length luciferase counter-screen),[2]; [3],92.59%
same,Luciferase Assay Z-score (full-length luciferase counter-screen),[2]; [3],-0.95
"CC[C@]1(O)C[C@H]2CN(CCc3c([nH]c4ccccc34)[C@@](C(=O)OC)(c3cc4c(cc3OC)N(C=O)[C@H]3[C@@](O)(C(=O)OC)[C@H](OC(C)=O)[C@]5(CC)C=CCN6CC[C@]43[C@@H]65)C2)C1 [Vincristine, reference compound]",Z-score (LCA primary screening),[1]; 384-well,7.99
same,EMax (% Luminescence),[1]; [9],198.49 % Luminescence
same,EC50,[1]; [10],0.27 µM
"CC[C@]1(O)C[C@@H]2CN(CCc3c([nH]c4ccccc34)[C@@](C(=O)OC)(c3cc4c(cc3OC)N(C)[C@H]3[C@@](O)(C(=O)OC)[C@H](OC(C)=O)[C@]5(CC)C=CCN6CC[C@]43[C@@H]65)C2)C1 [Vinblastine, reference compound]",Z-score (LCA primary screening),[1]; 384-well,7.42
same,EMax (% Luminescence),[1]; [9],191.58 % Luminescence
same,EC50,[1]; [10],20.6 µM
"CCC1=C[C@@H]2CN(C1)Cc1c([nH]c3ccccc13)[C@@](C(=O)OC)(c1cc3c(cc1OC)N(C)[C@H]1[C@@](O)(C(=O)OC)[C@H](OC(C)=O)[C@]4(CC)C=CCN5CC[C@]31[C@@H]54)C2 [Vinorelbine, reference compound]",Z-score (LCA primary screening),[1]; 384-well,8.79
same,EMax (% Luminescence),[1]; [9],208.53 % Luminescence
same,EC50,[1]; [10],1.55 µM
